Key:
Test in all cases: cell viability (% survival relative to DMSO control); higher = less cytotoxic
Conditions in all cases: 72 h
[1] = system: myeloid leukemia patient primary cells Pat.11
How it was run: (§1)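 Thawed mononuclear cells from AML or CML patients were purified on Ficoll and cultured for 72 h in RPMI 1640 with 10% FBS, at 10,000 cells/well, on 384-well plates carrying 70 pre-printed compounds at 1–10,000 nM in five tenfold steps, in duplicate. Viability came from CellTiter-Glo, normalised against DMSO and against 10 μM proteasome inhibitor. Any area under the curve given was derived from log-logistic curve fits in the drc and PharmacoGx R packages, and these fits had four parameters.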

[2] = system: myeloid leukemia patient primary cells Pat.12
How it was run: as §1

[3] = system: myeloid leukemia patient primary cells Pat.15
How it was run: as §1

[4] = system: myeloid leukemia patient primary cells Pat.6
How it was run: as §1

SMILES	cell viability ([1]; 1 nM) [%]	cell viability ([1]; 10 nM) [%]	cell viability ([1]; 100 nM) [%]	cell viability ([1]; 1000 nM) [%]	cell viability ([1]; 10000 nM) [%]	cell viability ([2]; 1 nM) [%]	cell viability ([2]; 10 nM) [%]	cell viability ([2]; 100 nM) [%]	cell viability ([2]; 1000 nM) [%]	cell viability ([2]; 10000 nM) [%]	cell viability ([3]; 1 nM) [%]	cell viability ([3]; 10 nM) [%]	cell viability ([3]; 100 nM) [%]	cell viability ([3]; 1000 nM) [%]	cell viability ([3]; 10000 nM) [%]	cell viability ([4]; 1 nM) [%]	cell viability ([4]; 10 nM) [%]	cell viability ([4]; 100 nM) [%]	cell viability ([4]; 1000 nM) [%]	cell viability ([4]; 10000 nM) [%]
Sc1ncnc2nc[nH]c12 [6-mercaptopurine]	> 100	98.2	97.6	97.9	98.1	> 100	95.9	93.6	97.3	> 100	99.2	> 100	98.5	94.3	98.3	89.3	> 100	99.8	88.3	97.9
Cc1noc2c1-c1ccccc1C(c1ccc(Cl)cc1)=N[C@H]2CC(N)=O [CPI-0610]	> 100	93	93.6	54.3	51.8	96.7	90.2	98.4	82.8	80.9	95.1	94.6	76.1	3.36	1.08	> 100	87.9	> 100	87.9	69.7
Nc1ccn([C@@H]2O[C@H](CO)[C@@H](O)[C@@H]2O)c(=O)n1 [Cytarabine]	95.7	93.6	> 100	89.3	41.1	96.3	94.1	> 100	97.1	67.7	94.5	86.4	99.6	81	32.8	> 100	78.9	89.5	86.6	36.2
CCN(CC)CCN(Cc1ccc(-c2ccc(C(F)(F)F)cc2)cc1)C(=O)Cn1c(SCc2ccc(F)cc2)nc(=O)c2c1CCC2 [Darapladib]	87.2	98.3	85.3	88.2	0.357	94.6	97.5	85.3	92.2	< 0	82.5	> 100	85.8	96	0.433	80.4	90	72.6	79.3	0.0489
CC12CCC(O)CC1CCC1C2CCC2(C)C(C3=CC(=O)OC3)CCC12O (stereo not given) [Digitoxigenin]	99.8	94.1	94.8	31.9	9.33	97.4	96	94.2	58.7	16.8	> 100	92.9	97.5	8.87	2.72	99.7	92.2	93.7	39.5	11.2
C[C@H]1O[C@@H](O[C@H]2[C@@H](O)C[C@H](O[C@H]3[C@@H](O)C[C@H](O[C@H]4CC[C@@]5(C)[C@H](CC[C@@H]6[C@@H]5C[C@@H](O)[C@]5(C)[C@@H](C7=CC(=O)OC7)CC[C@]65O)C4)O[C@@H]3C)O[C@@H]2C)C[C@H](O)[C@@H]1O [Digoxin]	> 100	97.6	48.8	12.4	7.54	94.2	95	85.5	41.7	12.6	98.4	98.4	50.6	1.74	1.52	98	96	87	25.4	6.2
Clc1ccc(COC(Cn2ccnc2)c2ccc(Cl)cc2Cl)cc1 (stereo not given) [Econazole]	89.9	92.9	99.9	88.6	73.3	89.2	94.9	95.7	96.5	90.3	84.3	92.6	98.3	89.4	68.7	91.4	96	92.2	84.9	44.9
C[C@]12O[C@H](C[C@]1(O)CO)n1c3ccccc3c3c4c(c5c6ccccc6n2c5c31)CNC4=O [Lestaurtinib]	96.4	74.7	41.8	56.9	1.92	> 100	> 100	87	> 100	1.77	97.1	61.3	43.7	2.83	0.259	87.2	66.8	73.2	93.9	8.53
CC(Cc1ccc(O)c(O)c1)C(C)Cc1ccc(O)c(O)c1 (stereo not given) [Masoprocol]	94.1	> 100	98.8	89.9	80	91.2	96.6	98.3	89	35.1	89	93.8	94.4	80.9	31.1	97.8	94.2	> 100	72.2	33.9
COc1c(C)c2c(c(O)c1C/C=C(\C)CCC(=O)O)C(=O)OC2 [Mycophenolic acid]	88.3	> 100	91	> 100	78.1	> 100	> 100	85.9	> 100	80.5	91.6	94.3	86.7	> 100	84.3	83.4	97.6	81.8	93.2	> 100
CCOC(=O)N1c2ccc(C(F)(F)F)cc2[C@@H](N(Cc2cc(C(F)(F)F)cc(C(F)(F)F)c2)C(=O)OC)C[C@H]1CC [Torcetrapib]	96.7	85.1	99.1	> 100	97.5	93.2	82.7	94.3	89.7	79	98.5	86	97.7	87.1	75.8	89.2	80.7	> 100	> 100	50.4
